Target: CDK2 (Homo sapiens, UniProt P24941)
Test: CDK2 substrate phosphorylation assay
Assay type: biochemical
Conditions: CDK2 expressed in baculovirus system; peptide Biotin-aminohexyl-ARRPMSPKKKA-NH2, [g-32P]ATP; pIC50 = −log10(IC50)
Description: The compounds of the present invention have valuable pharmacologic properties. Different compounds from this class are particularly effective at inhibiting CDK2. Substrate phosphorylation assays were carried out as follows:
Cyclin dependent protein kinase 2 assays utilized the peptide Biotin-aminohexyl-ARRPMSPKKKA-NH2 (SEQ ID NO:1) as phosphoryl group acceptor. CDK2 was expressed utilizing a baculovirus expression system and was partially purified to comprise 20-80% of total protein, with no detectable competing reactions present. Typically, assays were performed by incubating enzyme (0.2-10 nM), with and without inhibitor, peptide substrate ([…]), [g-32P]ATP ([…]), and 10-20 mM Mg2+ for periods of time generally within the range 10-120 minutes. Reactions were terminated with 0.2-2 volumes of either 20% acetic acid or 50-100 mM EDTA buffered to pH 7 (substrate consumption <20%). The buffer employed in enzyme assay was 100 mM HEPES pH 7.5 containing 0.1 mg/mL BSA and 5% DMSO. Inhibitors were diluted in 100% DMSO prior to addition into the assay. Detection of peptide phosphorylation was accomplished by scintillation counting following either collection of peptide onto phosphocellulose filters (for reactions stopped with acetic acid), collection of peptide in wells of 96 well plates coated with Streptavidin (Pierce) (reactions were stopped with EDTA), or addition of Avidin coated Scintillant impregnated beads (Scintillation Proximity Assays from Amersham, reactions were stopped with EDTA). Counts detected by any of these methodologies minus the appropriate background (assays with additional 40 mM EDTA or lacking peptide substrate) were assumed to be proportional to the reaction initial rates, and IC50s were determined by a least squares fit to the equation CPM=Vmax*(1−([I]/(K+[I])))+nsb, or −pIC50s were determined by a fit to the equation CPM=nsb+(Vmax−nsb)/(1+(x/10x−pIC50)), where nsb are the background counts […]. Radioactivity was determined by liquid scintillation counting.

Row | IC50 [nM] | SMILES
1 | 102 to 20000 | NS(=O)(=O)c1ccc(Nc2cc(-c3cccc(N4CCOCC4)c3)n[nH]2)cc1 [In, 4-[5-(3-Morpholin-4-yl-phenyl)-2H-pyrazol-3-ylamino]-benzenesulfonamide]
2 | 10.2 to 100 | NS(=O)(=O)c1ccc(Nc2cc(-c3cccc(NC(=O)Nc4cc(C(F)(F)F)ccc4F)c3)n[nH]2)cc1 [Compound Il, 4-(5-{3-[3-(2-Fluoro-5-trifluoromethyl-phenyl)-ureido]-phenyl}-2H-pyrazol-3-ylamino)-benzenesulfonamide]
3 | 1.02 to 10 | Nc1cccc(-c2cc(Nc3ccc(S(N)(=O)=O)cc3)[nH]n2)c1 [Compound Ij, 4-[5-(3-Amino-phenyl)-2H-pyrazol-3-ylamino]-benzenesulfonamide]
4 | 0.102 to 1 | Nc1ccc(-c2cc(Nc3ccc(S(N)(=O)=O)cc3)[nH]n2)cc1 [Ih, 4-[5-(4-Amino-phenyl)-2H-pyrazol-3-ylamino]-benzenesulfonamide]

— patent publication US7507834B2, “Substituted anilinopyrazoles” (SmithKline Beechan Corporation, priority 2003, dated 2009)
